Results reported in PubChem BioAssay (NCI).
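Interpolation was linear, between the two tested concentrations surrounding the appropriate level; five concentrations were tested over 48 hours in 96-well plates. The concentration for full growth arrest is given as TGI.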

Key:
Assay in all cases: NCI tumour cell line growth inhibition, 48 h
OVCAR-3 ovarian = test system: OVCAR-3 ovarian
NCI/ADR-RES ovarian = test system: NCI/ADR-RES ovarian
MDA-MB-231 breast = test system: MDA-MB-231 breast
SNB-19 CNS = test system: SNB-19 CNS
HOP-92 NSCLC = test system: HOP-92 NSCLC
U251 CNS = test system: U251 CNS
SF-539 CNS = test system: SF-539 CNS
SK-MEL-2 melanoma = test system: SK-MEL-2 melanoma
MCF7 breast = test system: MCF7 breast
MDA-MB-435 = test system: MDA-MB-435
SNB-75 CNS = test system: SNB-75 CNS
SK-MEL-5 melanoma = test system: SK-MEL-5 melanoma
HCT-15 colon = test system: HCT-15 colon
HCT-116 colon = test system: HCT-116 colon
LOX IMVI melanoma = test system: LOX IMVI melanoma
A498 renal = test system: A498 renal
UO-31 renal = test system: UO-31 renal
HCC-2998 colon = test system: HCC-2998 colon
RPMI-8226 leukemia = test system: RPMI-8226 leukemia
SF-268 CNS = test system: SF-268 CNS
SF-295 CNS = test system: SF-295 CNS
MDA-N = test system: MDA-N
A549 NSCLC = test system: A549 NSCLC
NCI-H226 lung = test system: NCI-H226 lung
CCRF-CEM leukemia = test system: CCRF-CEM leukemia
UACC-257 melanoma = test system: UACC-257 melanoma
SK-MEL-28 melanoma = test system: SK-MEL-28 melanoma
M14 melanoma = test system: M14 melanoma
PC-3 prostate = test system: PC-3 prostate
SK-OV-3 ovarian = test system: SK-OV-3 ovarian
DU-145 prostate = test system: DU-145 prostate
RXF 393 renal = test system: RXF 393 renal
HS 578T breast = test system: HS 578T breast
OVCAR-5 ovarian = test system: OVCAR-5 ovarian
K-562 leukemia = test system: K-562 leukemia
KM12 colon = test system: KM12 colon
CAKI-1 renal = test system: CAKI-1 renal
ACHN renal = test system: ACHN renal
786-0 renal = test system: 786-0 renal
T-47D breast = test system: T-47D breast
SN12C renal = test system: SN12C renal
EKVX NSCLC = test system: EKVX NSCLC
OVCAR-4 ovarian = test system: OVCAR-4 ovarian
SW-620 colon = test system: SW-620 colon
HOP-62 NSCLC = test system: HOP-62 NSCLC
UACC-62 melanoma = test system: UACC-62 melanoma
TK-10 renal = test system: TK-10 renal
OVCAR-8 ovarian = test system: OVCAR-8 ovarian
MOLT-4 leukemia = test system: MOLT-4 leukemia
MALME-3M melanoma = test system: MALME-3M melanoma
IGROV1 ovarian = test system: IGROV1 ovarian
NCI-H23 lung = test system: NCI-H23 lung
HL-60(TB) leukemia = test system: HL-60(TB) leukemia
NCI-H522 lung = test system: NCI-H522 lung
COLO 205 colon = test system: COLO 205 colon
HT29 colon = test system: HT29 colon
SR leukemia = test system: SR leukemia
NCI-H460 lung = test system: NCI-H460 lung

## CC1(C)[C@@H](Cn2nnc3c(N)ncnc32)CC[C@@]1(C)CO
OVCAR-3 ovarian
  TGI: > 100 µM
NCI/ADR-RES ovarian
  TGI: > 100 µM
MDA-MB-231 breast
  TGI: > 100 µM
SNB-19 CNS
  TGI: > 100 µM
HOP-92 NSCLC
  TGI: > 100 µM
U251 CNS
  TGI: > 100 µM
SF-539 CNS
  TGI: > 100 µM
SK-MEL-2 melanoma
  TGI: > 100 µM
MCF7 breast
  TGI: > 100 µM
MDA-MB-435
  TGI: > 100 µM
SNB-75 CNS
  TGI: > 100 µM
SK-MEL-5 melanoma
  TGI: > 100 µM
HCT-15 colon
  TGI: > 100 µM
HCT-116 colon
  TGI: > 100 µM
LOX IMVI melanoma
  TGI: > 100 µM
A498 renal
  TGI: > 100 µM
UO-31 renal
  TGI: > 100 µM
HCC-2998 colon
  TGI: 29 µM
RPMI-8226 leukemia
  TGI: > 100 µM
SF-268 CNS
  TGI: > 100 µM
SF-295 CNS
  TGI: > 100 µM
MDA-N
  TGI: > 100 µM
A549 NSCLC
  TGI: > 100 µM
NCI-H226 lung
  TGI: > 100 µM
CCRF-CEM leukemia
  TGI: > 100 µM
UACC-257 melanoma
  TGI: > 100 µM
SK-MEL-28 melanoma
  TGI: > 100 µM
M14 melanoma
  TGI: > 100 µM
PC-3 prostate
  TGI: > 100 µM
SK-OV-3 ovarian
  TGI: > 100 µM
DU-145 prostate
  TGI: > 100 µM
RXF 393 renal
  TGI: > 100 µM
HS 578T breast
  TGI: > 100 µM
OVCAR-5 ovarian
  TGI: > 100 µM
K-562 leukemia
  TGI: > 100 µM
KM12 colon
  TGI: > 100 µM
CAKI-1 renal
  TGI: > 100 µM
ACHN renal
  TGI: > 100 µM
786-0 renal
  TGI: > 100 µM
T-47D breast
  TGI: > 100 µM
SN12C renal
  TGI: > 100 µM
EKVX NSCLC
  TGI: > 100 µM
OVCAR-4 ovarian
  TGI: > 100 µM
SW-620 colon
  TGI: > 100 µM
HOP-62 NSCLC
  TGI: > 100 µM
UACC-62 melanoma
  TGI: > 100 µM
TK-10 renal
  TGI: > 100 µM

## CCC#CCCCCCCCCC(F)C(=O)O (stereo not drawn)
OVCAR-3 ovarian
  TGI: > 100 µM
NCI/ADR-RES ovarian
  TGI: > 100 µM
MDA-MB-231 breast
  TGI: > 100 µM
SNB-19 CNS
  TGI: > 100 µM
HOP-92 NSCLC
  TGI: > 100 µM
OVCAR-8 ovarian
  TGI: > 100 µM
U251 CNS
  TGI: > 100 µM
MOLT-4 leukemia
  TGI: > 100 µM
SF-539 CNS
  TGI: > 100 µM
SK-MEL-2 melanoma
  TGI: > 100 µM
MCF7 breast
  TGI: > 100 µM
MDA-MB-435
  TGI: > 100 µM
MALME-3M melanoma
  TGI: > 100 µM
SNB-75 CNS
  TGI: > 100 µM
SK-MEL-5 melanoma
  TGI: > 100 µM
HCT-15 colon
  TGI: > 100 µM
HCT-116 colon
  TGI: > 100 µM
LOX IMVI melanoma
  TGI: > 100 µM
A498 renal
  TGI: > 100 µM
UO-31 renal
  TGI: > 100 µM
HCC-2998 colon
  TGI: > 100 µM
RPMI-8226 leukemia
  TGI: > 100 µM
SF-268 CNS
  TGI: > 100 µM
SF-295 CNS
  TGI: > 100 µM
MDA-N
  TGI: > 100 µM
IGROV1 ovarian
  TGI: > 100 µM
A549 NSCLC
  TGI: > 100 µM
NCI-H226 lung
  TGI: > 100 µM
CCRF-CEM leukemia
  TGI: > 100 µM
UACC-257 melanoma
  TGI: > 100 µM
SK-MEL-28 melanoma
  TGI: > 100 µM
NCI-H23 lung
  TGI: > 100 µM
M14 melanoma
  TGI: > 100 µM
PC-3 prostate
  TGI: > 100 µM
SK-OV-3 ovarian
  TGI: > 100 µM
DU-145 prostate
  TGI: > 100 µM
RXF 393 renal
  TGI: > 100 µM
HL-60(TB) leukemia
  TGI: > 100 µM
HS 578T breast
  TGI: > 100 µM
OVCAR-5 ovarian
  TGI: > 100 µM
K-562 leukemia
  TGI: > 100 µM
KM12 colon
  TGI: > 100 µM
CAKI-1 renal
  TGI: > 100 µM
ACHN renal
  TGI: > 100 µM
786-0 renal
  TGI: > 100 µM
T-47D breast
  TGI: > 100 µM
SN12C renal
  TGI: > 100 µM
EKVX NSCLC
  TGI: > 100 µM
NCI-H522 lung
  TGI: > 100 µM
OVCAR-4 ovarian
  TGI: > 100 µM
SW-620 colon
  TGI: > 100 µM
COLO 205 colon
  TGI: > 100 µM
HT29 colon
  TGI: > 100 µM
HOP-62 NSCLC
  TGI: > 100 µM
TK-10 renal
  TGI: > 100 µM

## Cc1c(C(=O)C(=O)c2ccccc2)c(C)c(C(=O)C(=O)c2ccccc2)c(C)c1C(=O)C(=O)c1ccccc1
NCI/ADR-RES ovarian
  TGI: > 100 µM
MDA-MB-231 breast
  TGI: > 100 µM
SNB-19 CNS
  TGI: > 100 µM
OVCAR-8 ovarian
  TGI: > 100 µM
U251 CNS
  TGI: > 100 µM
MOLT-4 leukemia
  TGI: > 100 µM
SF-539 CNS
  TGI: > 100 µM
MCF7 breast
  TGI: > 100 µM
MDA-MB-435
  TGI: > 100 µM
SNB-75 CNS
  TGI: > 100 µM
SK-MEL-5 melanoma
  TGI: > 100 µM
HCT-15 colon
  TGI: > 100 µM
HCT-116 colon
  TGI: > 100 µM
UO-31 renal
  TGI: > 100 µM
SR leukemia
  TGI: > 100 µM
HCC-2998 colon
  TGI: > 100 µM
RPMI-8226 leukemia
  TGI: > 100 µM
SF-268 CNS
  TGI: > 100 µM
SF-295 CNS
  TGI: > 100 µM
MDA-N
  TGI: > 100 µM
IGROV1 ovarian
  TGI: > 100 µM
A549 NSCLC
  TGI: > 100 µM
CCRF-CEM leukemia
  TGI: > 100 µM
UACC-257 melanoma
  TGI: > 100 µM
SK-MEL-28 melanoma
  TGI: > 100 µM
M14 melanoma
  TGI: > 100 µM
PC-3 prostate
  TGI: > 100 µM
SK-OV-3 ovarian
  TGI: > 100 µM
HL-60(TB) leukemia
  TGI: > 100 µM
HS 578T breast
  TGI: > 100 µM
OVCAR-5 ovarian
  TGI: > 100 µM
K-562 leukemia
  TGI: > 100 µM
KM12 colon
  TGI: > 100 µM
ACHN renal
  TGI: > 100 µM
786-0 renal
  TGI: > 100 µM
NCI-H460 lung
  TGI: > 100 µM
T-47D breast
  TGI: > 100 µM
SN12C renal
  TGI: > 100 µM
EKVX NSCLC
  TGI: > 100 µM
NCI-H522 lung
  TGI: > 100 µM
OVCAR-4 ovarian
  TGI: > 100 µM
SW-620 colon
  TGI: > 100 µM
COLO 205 colon
  TGI: > 100 µM
HT29 colon
  TGI: > 100 µM
HOP-62 NSCLC
  TGI: > 100 µM
TK-10 renal
  TGI: > 100 µM
